Source: PubChem BioAssay (NCI)
Several values for one entry are separate records, joined by “and”; a condition that tells them apart may be missing. Equal entries are not always repeated.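 Tested at 5 concentrations; 48 h exposure; 96-well plates; endpoints linearly interpolated, else capped at highest concentration. GI50 marks 50% less growth. The concentration for full growth arrest is given as TGI.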

Key:
Test in all cases: NCI anticancer screen, dose series, 48 h
NCI-H23 lung = tested on: NCI-H23 lung
RXF 393 renal = tested on: RXF 393 renal
NCI-H460 lung = tested on: NCI-H460 lung
EKVX NSCLC = tested on: EKVX NSCLC
NCI-H522 lung = tested on: NCI-H522 lung
NCI-H226 lung = tested on: NCI-H226 lung
SNB-19 CNS = tested on: SNB-19 CNS
HCT-15 colon = tested on: HCT-15 colon
SK-MEL-5 melanoma = tested on: SK-MEL-5 melanoma
SR leukemia = tested on: SR leukemia

Row | Compound | TGI (NCI-H23 lung) [µM] | TGI (RXF 393 renal) | TGI (NCI-H460 lung) [µM] | TGI (EKVX NSCLC) | TGI (NCI-H522 lung) | TGI (NCI-H226 lung) [µM] | TGI (SNB-19 CNS) [µM] | TGI (HCT-15 colon) [µM] | TGI (SK-MEL-5 melanoma) | TGI (SR leukemia) | GI50 (NCI-H23 lung) | GI50 (RXF 393 renal) [µM] | GI50 (NCI-H460 lung) [µM] | GI50 (EKVX NSCLC) | GI50 (NCI-H522 lung) | GI50 (NCI-H226 lung) [µM] | GI50 (SNB-19 CNS) [µM] | GI50 (HCT-15 colon) [µM] | GI50 (SK-MEL-5 melanoma) | GI50 (SR leukemia)
1 | Cc1nc2sc(C(=O)c3ccc(Cl)cc3)c(N)c2c(-c2ccccc2Cl)c1C(=O)Nc1ccccc1 | 38.9 | 31.3 µM | 28.8 | 59 µM | 25.1 µM | 62.1 | 71.2 | 43.5 | 36.6 µM | 58.2 µM |  |  |  |  |  |  |  |  |  | 
2 | COc1ccc(-c2c(-c3ccccc3)c(C)nc3nc(SC)nc(SC)c23)cc1OC | > 100 | > 100 µM | 16.2 | > 100 µM | 35.4 µM | 82.9 | > 100 | > 100 | 27.8 µM | 2.6 µM |  |  |  |  |  |  |  |  |  | 
3 | CCN1CCC(CNC(=O)c2ccc(N)cc2)N1CC (stereo not given) | > 100 | > 100 µM | > 100 | > 100 µM | > 100 µM | > 100 | > 100 | > 100 | > 100 µM | > 100 µM |  |  |  |  |  |  |  |  |  | 
4 | Nc1nc(Cl)c(Cl)c(NCC2(O)CCC2)n1 | > 100 | > 100 µM | > 100 | > 100 µM | 40.9 µM | > 100 | > 100 | > 100 | > 100 µM | > 100 µM |  |  |  |  |  |  |  |  |  | 
5 | CCOC(=O)/C=C(\C(=O)OCC)n1cc(C)c(=O)n(Cc2cnnn2COCCOC(C)=O)c1=O | 34.2 | 13.2 µM | 35.6 | 24.6 µM | 2.91 µM | 35 | > 61.8 | 12 | > 51.6 µM | > 34.7 µM |  |  |  |  |  |  |  |  |  | 
6 | OC1COC2CC(Nc3ccccn3)OC12 (stereo not given) | > 100 | > 100 µM | > 100 | > 100 µM | > 100 µM | > 100 | > 100 | > 100 | > 100 µM | > 100 µM |  |  |  |  |  |  |  |  |  | 
7 | CC(C)=CC(=O)c1[nH]c2ccccc2c1CC(=O)NCCc1cncn1C | > 100 | 83.4 µM | > 100 | 83.4 µM | 84.6 µM | > 100 | > 100 | > 100 | > 100 µM | 68 µM |  |  |  |  |  |  |  |  |  | 
8 | O=C1C(c2c(O)[nH]c3ccc(Br)cc23)=Nc2ccc(Br)cc21 | 88 | 40.7 µM | > 100 | > 100 µM | > 100 µM | > 100 | 92.4 | > 100 | > 100 µM | > 100 µM |  |  |  |  |  |  |  |  |  | 
9 | O=C(SCc1cccc2ccccc12)c1ccc(Cl)cc1 | > 100 | > 100 µM | > 100 | > 100 µM | > 100 µM | > 100 | > 100 | > 100 | > 100 µM | > 100 µM |  |  |  |  |  |  |  |  |  | 
10 | CCCCOP(C)(=O)C(NC(=O)OCC)(C(F)(F)F)C(F)(F)F (stereo not given) | > 100 | > 100 µM | > 100 | > 100 µM | > 100 µM | > 100 | > 100 | > 100 | > 100 µM | > 100 µM |  |  |  |  |  |  |  |  |  | 
11 | O=C(Cn1c(C(=O)c2ccccc2)nc2ccccc21)c1ccccc1 | > 100 | > 100 µM | > 100 | > 100 µM | > 100 µM | > 100 | > 100 | > 100 | > 100 µM | > 100 µM |  |  |  |  |  |  |  |  |  | 
12 | COc1cc2c(/C=C3/C(=O)N(C)c4ccc(O)cc43)c(Cl)[nH]c2cc1C | 3.28 | 23.3 µM | 19.8 | 23.9 µM | 16.6 µM | 16.2 | 5.35 | 12.8 | 6.35 µM | 1.23 µM |  |  |  |  |  |  |  |  |  | 
13 | C#CC(O)/C=C/CCCCCCC#CC/C=C\CC#CCCCCCCCCC(O)C#C (stereo not given) | 4.17 | 31.6 µM | 41.5 | 10.3 µM | 0.526 µM | 35.5 | 37.5 | 10.4 | 9.71 µM | > 22 µM |  |  |  |  |  |  |  |  |  | 
14 | Cn1cc(S(=O)(=O)NC(=O)Nc2ccc(Cl)cc2)c(=O)c2ccc(F)cc21 | > 100 | > 100 µM | > 100 | > 100 µM | > 100 µM | > 100 | > 100 | > 100 | > 100 µM | > 100 µM |  |  |  |  |  |  |  |  |  | 
15 | CCOC(=O)C1(C#N)CC1 | > 100 | > 100 µM | > 100 | > 100 µM | > 100 µM | > 100 | > 100 | > 100 | > 100 µM | > 100 µM |  |  |  |  |  |  |  |  |  | 
16 | Cc1cccc(CC(Cc2ccc(C)cc2C(=O)O)C(=O)O)c1 (stereo not given) | > 100 | > 100 µM | > 100 | > 100 µM | > 100 µM | > 100 | > 100 | > 100 | > 100 µM | > 100 µM |  |  |  |  |  |  |  |  |  | 
17 | [N-]=[N+]=CC(=O)OCCCCl | > 100 | > 100 µM | > 100 | > 100 µM | > 100 µM | > 100 | > 100 | > 100 | > 100 µM | > 100 µM |  |  |  |  |  |  |  |  |  | 
18 | O=C1/C(=C/c2ccc(O)cc2)COc2ccc(O)c(O)c21 | 34.7 | 3.82 µM | 4.69 | > 100 µM | 0.596 µM | 34.8 | > 100 | 4.07 | 4.01 µM | > 100 µM | 3.97 µM | 1.55 | 2.16 | 2.91 µM | 0.187 µM | 8.37 | 3.74 | 1.31 | 1.81 µM | 1.1 µM
19 | Cc1cc2nc3c(C#N)c4c(c(-c5ccc(Cl)cc5)n3c2cc1C)CCC4 | 35.4 | > 100 µM | > 100 | 54.4 µM | 35.4 µM | 41 | 37.8 | 70.3 | 40.3 µM | 45.7 µM |  |  |  |  |  |  |  |  |  | 
20 | C(=Nc1ccc(-c2nc3ccccc3s2)cc1)c1ccc[nH]1 | 37 | 31.3 µM | 38.1 | 45.4 µM | 28 µM | 35.6 | > 100 | 38.7 | 30.7 µM | 49.5 µM |  |  |  |  |  |  |  |  |  | 
21 | COC(=O)Nc1nc2ccc(S(=O)(=O)N3CCOCC3)cc2[nH]1 | > 100 | > 100 µM | > 100 | > 100 µM | > 100 µM | > 100 | > 100 | > 100 | > 100 µM | > 100 µM |  |  |  |  |  |  |  |  |  | 
22 | COc1ccc(C2C(=O)c3c(OC)cc(OC)cc3OC2c2cccnc2)cc1 (stereo not given) | > 100 | > 100 µM | > 100 | > 100 µM | > 100 µM | > 100 | > 100 | > 100 | > 100 µM | > 100 µM |  |  |  |  |  |  |  |  |  | 
23 | CC1=CP(=O)(c2c(C(C)C)cc(C(C)C)cc2C(C)C)CCC1Cl (stereo not given) | 39.4 | 31.5 µM | 35.3 | 32.6 µM | 33.6 µM | 35.1 | 30.3 | 39.8 | 31.7 µM | 23 µM |  |  |  |  |  |  |  |  |  | 
24 | Cc1ccc2c(c1)nc1n2C(N)=Nc2ccccc2S1 | > 100 | > 100 µM | > 100 | > 100 µM | > 100 µM | > 100 | > 100 | > 100 | > 100 µM | > 100 µM |  |  |  |  |  |  |  |  |  | 
25 | CC1(C)COC2=C(C1)C(=O)c1ccccc1C2=O | 3.46 | 3.51 µM | 3.64 | 3.59 µM | 3.8 µM | 4.8 | 3.82 | 2.41 | 1.88 µM | 8.37 µM |  |  |  |  |  |  |  |  |  | 
26 | COC(=O)C1(SC)C2CCC3C2CCC31 (stereo not given) | > 100 | > 100 µM | > 100 | > 100 µM | > 100 µM | > 100 | > 100 | > 100 | > 100 µM | > 100 µM |  |  |  |  |  |  |  |  |  | 
27 | CC(=O)OCC1OC(n2c(S)c(C#N)c(-c3ccccc3)c(C#N)c2=O)C(OC(C)=O)C(OC(C)=O)C1OC(C)=O (stereo not given) | > 100 | 59.4 µM and 59.1 µM | > 100 | > 100 µM and 76.1 µM | > 100 µM and 51.3 µM | > 100 | > 100 | > 100 | > 100 µM and 41.6 µM | > 100 µM and 57.7 µM | > 100 µM and 45 µM |  |  | > 100 µM and 25.1 µM | 54.8 µM and 27 µM |  |  |  | > 100 µM and 20.2 µM | > 100 µM and 32.1 µM
28 | CN(CCNC(=O)c1c[nH]c2c1Cc1ccccc1-2)CCNC(=O)c1c[nH]c2c1Cc1ccccc1-2 | > 100 | > 100 µM | > 100 | > 100 µM | 97 µM | 71.9 | > 100 | > 100 | 71.4 µM | > 100 µM |  |  |  |  |  |  |  |  |  | 
29 | COC1(CC[C@@H](C)COC2OC(CO)C(O)C(O)C2O)O[C@H]2C[C@H]3[C@@H]4CC=C5C[C@@H](OC6OC(CO)C(O)C(OC7OC(CO)C(O)C(O)C7O)C6OC6OC(C)C(O)C(O)C6O)CC[C@]5(C)[C@H]4CC[C@]3(C)[C@H]2[C@@H]1C (stereo not given in full) | 28.2 | 19.5 µM | 14.8 | 35.3 µM | 15.3 µM | 26.5 | 21.2 | 11.8 | 27.5 µM | > 100 µM |  |  |  |  |  |  |  |  |  | 
30 | CC(=O)OCC1OC(n2c(Br)nc3c2c(=O)n(C)c(=O)n3C)C(OC(C)=O)C1OC(C)=O (stereo not given) | > 100 | > 100 µM | > 100 | > 100 µM | > 100 µM | > 100 | > 100 | > 100 | > 100 µM | > 100 µM |  |  |  |  |  |  |  |  |  | 
